# Reference: PubChem BioAssay (NCI)
#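 Here, GI50 denotes the concentration required for 50% inhibition of growth. TGI denotes the concentration required for complete inhibition of growth.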
# Assays:
# Experiment in all cases: growth of human tumour cells (NCI), 384-well format
# SR leukemia = tested on: SR leukemia
# IGROV1 ovarian = tested on: IGROV1 ovarian
# MALME-3M melanoma = tested on: MALME-3M melanoma
# COLO 205 colon = tested on: COLO 205 colon
# HOP-62 NSCLC = tested on: HOP-62 NSCLC
# TK-10 renal = tested on: TK-10 renal
# MDA-MB-231 breast = tested on: MDA-MB-231 breast
# PC-3 prostate = tested on: PC-3 prostate
# SNB-75 CNS = tested on: SNB-75 CNS
# EKVX NSCLC = tested on: EKVX NSCLC
# HL-60(TB) leukemia = tested on: HL-60(TB) leukemia
# SK-MEL-5 melanoma = tested on: SK-MEL-5 melanoma
# HOP-92 NSCLC = tested on: HOP-92 NSCLC
# M14 melanoma = tested on: M14 melanoma
# MDA-MB-468 breast = tested on: MDA-MB-468 breast
# LOX IMVI melanoma = tested on: LOX IMVI melanoma
# OVCAR-3 ovarian = tested on: OVCAR-3 ovarian
# KM12 colon = tested on: KM12 colon
# SK-OV-3 ovarian = tested on: SK-OV-3 ovarian
# UACC-62 melanoma = tested on: UACC-62 melanoma
# MCF7 breast = tested on: MCF7 breast
# CAKI-1 renal = tested on: CAKI-1 renal
# HCC-2998 colon = tested on: HCC-2998 colon
# SF-268 CNS = tested on: SF-268 CNS
# SF-295 CNS = tested on: SF-295 CNS
# SW-620 colon = tested on: SW-620 colon
# SNB-19 CNS = tested on: SNB-19 CNS
# NCI-H23 lung = tested on: NCI-H23 lung
# RXF 393 renal = tested on: RXF 393 renal
# HCT-116 colon = tested on: HCT-116 colon
# HS 578T breast = tested on: HS 578T breast
# NCI-H322M lung = tested on: NCI-H322M lung
# UACC-257 melanoma = tested on: UACC-257 melanoma
# NCI/ADR-RES ovarian = tested on: NCI/ADR-RES ovarian
# K-562 leukemia = tested on: K-562 leukemia
# DU-145 prostate = tested on: DU-145 prostate
# 786-0 renal = tested on: 786-0 renal
# SN12C renal = tested on: SN12C renal
# HT29 colon = tested on: HT29 colon
# NCI-H226 lung = tested on: NCI-H226 lung
# A498 renal = tested on: A498 renal
# A549 NSCLC = tested on: A549 NSCLC
# U251 glioblastoma = tested on: U251 glioblastoma
# HCT-15 colon = tested on: HCT-15 colon
# SK-MEL-2 melanoma = tested on: SK-MEL-2 melanoma
# BT-549 breast = tested on: BT-549 breast
# OVCAR-4 ovarian = tested on: OVCAR-4 ovarian
# SF-539 CNS = tested on: SF-539 CNS
# ACHN renal = tested on: ACHN renal
# NCI-H460 NSCLC = tested on: NCI-H460 NSCLC
# UO-31 renal = tested on: UO-31 renal
# RPMI-8226 leukemia = tested on: RPMI-8226 leukemia
# MOLT-4 leukemia = tested on: MOLT-4 leukemia
# SK-MEL-28 melanoma = tested on: SK-MEL-28 melanoma
# CCRF-CEM leukemia = tested on: CCRF-CEM leukemia
# T-47D breast = tested on: T-47D breast
# OVCAR-5 ovarian = tested on: OVCAR-5 ovarian
# MDA-MB-435 melanoma = tested on: MDA-MB-435 melanoma
# NCI-H522 lung = tested on: NCI-H522 lung
structure (smiles),measurement,setting,value
CC1(C)CNc2cc(NC(=O)c3cccnc3NCc3ccncc3)ccc21,GI50,SR leukemia,11.4 µM
same,TGI,SR leukemia,24.3 µM
same,GI50,IGROV1 ovarian,12.5 µM
same,TGI,IGROV1 ovarian,40.3 µM
same,GI50,MALME-3M melanoma,20.1 µM
same,TGI,MALME-3M melanoma,66.5 µM
same,GI50,COLO 205 colon,31.6 µM
same,TGI,COLO 205 colon,> 100 µM
same,GI50,HOP-62 NSCLC,70.9 µM
same,TGI,HOP-62 NSCLC,> 100 µM
same,GI50,TK-10 renal,14.2 µM
same,TGI,TK-10 renal,> 100 µM
same,GI50,MDA-MB-231 breast,24.5 µM
same,TGI,MDA-MB-231 breast,82 µM
same,GI50,PC-3 prostate,43.2 µM
same,TGI,PC-3 prostate,> 100 µM
same,GI50,SNB-75 CNS,22.1 µM
same,TGI,SNB-75 CNS,80.9 µM
same,GI50,EKVX NSCLC,17.9 µM
same,TGI,EKVX NSCLC,48.6 µM
same,GI50,HL-60(TB) leukemia,25.5 µM
same,TGI,HL-60(TB) leukemia,42.4 µM
same,GI50,SK-MEL-5 melanoma,13.1 µM
same,TGI,SK-MEL-5 melanoma,28.3 µM
same,GI50,HOP-92 NSCLC,21.1 µM
same,TGI,HOP-92 NSCLC,83.3 µM
same,GI50,M14 melanoma,24.9 µM
same,TGI,M14 melanoma,> 100 µM
same,GI50,MDA-MB-468 breast,9.35 µM
same,TGI,MDA-MB-468 breast,25.1 µM
same,GI50,LOX IMVI melanoma,24.9 µM
same,TGI,LOX IMVI melanoma,52.5 µM
same,GI50,OVCAR-3 ovarian,14.8 µM
same,TGI,OVCAR-3 ovarian,40.6 µM
same,GI50,KM12 colon,38.8 µM
same,TGI,KM12 colon,> 100 µM
same,GI50,SK-OV-3 ovarian,18.6 µM
same,TGI,SK-OV-3 ovarian,61.4 µM
same,GI50,UACC-62 melanoma,19.1 µM
same,TGI,UACC-62 melanoma,97.7 µM
same,GI50,MCF7 breast,23.3 µM
same,TGI,MCF7 breast,> 100 µM
same,GI50,CAKI-1 renal,19.4 µM
same,TGI,CAKI-1 renal,> 100 µM
same,GI50,HCC-2998 colon,38 µM
same,TGI,HCC-2998 colon,> 100 µM
same,GI50,SF-268 CNS,25.2 µM
same,TGI,SF-268 CNS,88.9 µM
same,GI50,SF-295 CNS,35.7 µM
same,TGI,SF-295 CNS,> 100 µM
same,GI50,SW-620 colon,49.6 µM
same,TGI,SW-620 colon,> 100 µM
same,GI50,SNB-19 CNS,44.8 µM
same,TGI,SNB-19 CNS,> 100 µM
same,GI50,NCI-H23 lung,25.8 µM
same,TGI,NCI-H23 lung,82.9 µM
same,GI50,RXF 393 renal,11 µM
same,TGI,RXF 393 renal,29.6 µM
same,GI50,HCT-116 colon,46.7 µM
same,TGI,HCT-116 colon,> 100 µM
same,GI50,HS 578T breast,15.8 µM
same,TGI,HS 578T breast,40.5 µM
same,GI50,NCI-H322M lung,33.4 µM
same,TGI,NCI-H322M lung,> 100 µM
same,GI50,UACC-257 melanoma,30.9 µM
same,TGI,UACC-257 melanoma,> 100 µM
same,GI50,NCI/ADR-RES ovarian,17.8 µM
same,TGI,NCI/ADR-RES ovarian,42.7 µM
same,GI50,K-562 leukemia,12.7 µM
same,TGI,K-562 leukemia,52.5 µM
same,GI50,DU-145 prostate,21.3 µM
same,TGI,DU-145 prostate,> 100 µM
same,GI50,786-0 renal,35.8 µM
same,TGI,786-0 renal,> 100 µM
same,GI50,SN12C renal,30.4 µM
same,TGI,SN12C renal,> 100 µM
same,GI50,HT29 colon,24.6 µM
same,TGI,HT29 colon,66.8 µM
same,GI50,NCI-H226 lung,9.96 µM
same,TGI,NCI-H226 lung,31.4 µM
same,GI50,A498 renal,25.6 µM
same,TGI,A498 renal,> 100 µM
same,GI50,A549 NSCLC,31.2 µM
same,TGI,A549 NSCLC,> 100 µM
same,GI50,U251 glioblastoma,46 µM
same,TGI,U251 glioblastoma,> 100 µM
same,GI50,HCT-15 colon,16.6 µM
same,TGI,HCT-15 colon,44.7 µM
same,GI50,SK-MEL-2 melanoma,39.2 µM
same,TGI,SK-MEL-2 melanoma,58.3 µM
same,GI50,BT-549 breast,26.1 µM
same,TGI,BT-549 breast,65.5 µM
same,GI50,OVCAR-4 ovarian,13.7 µM
same,TGI,OVCAR-4 ovarian,60.6 µM
same,GI50,SF-539 CNS,14.3 µM
same,TGI,SF-539 CNS,> 100 µM
same,GI50,ACHN renal,10.7 µM
same,TGI,ACHN renal,64.5 µM
same,GI50,NCI-H460 NSCLC,25.1 µM
same,TGI,NCI-H460 NSCLC,> 100 µM
same,GI50,UO-31 renal,25 µM
same,TGI,UO-31 renal,85.5 µM
same,GI50,RPMI-8226 leukemia,16 µM
same,TGI,RPMI-8226 leukemia,41.6 µM
same,GI50,MOLT-4 leukemia,12.7 µM
same,TGI,MOLT-4 leukemia,26.5 µM
same,GI50,SK-MEL-28 melanoma,37.8 µM
same,TGI,SK-MEL-28 melanoma,> 100 µM
same,GI50,CCRF-CEM leukemia,12.7 µM
same,TGI,CCRF-CEM leukemia,27.6 µM
same,GI50,T-47D breast,14.9 µM
same,TGI,T-47D breast,47.3 µM
same,GI50,OVCAR-5 ovarian,52.9 µM
same,TGI,OVCAR-5 ovarian,> 100 µM
same,GI50,MDA-MB-435 melanoma,29.4 µM
same,TGI,MDA-MB-435 melanoma,98.4 µM
same,GI50,NCI-H522 lung,20.4 µM
same,TGI,NCI-H522 lung,50.2 µM
